Experimental data reported in patent US6642355B2, “Endothelin-antagonizing peptide” (priority 1991, dated 2003).
Where two headings read alike, the source gives them in different places. Bridge positions count the residues as written; N and C are the ends. Square brackets hold non-standard residues; d marks the D form. Ends that are not written are not given here. Peptide text beside a SMILES is read from it. 2Nal = N[C@@H](Cc1ccc2ccccc2c1)C(=O)O

What was measured:
endothelin-3 = assay: Effect against airway contraction due to endothelin in anesthetized guinea pigs; assay type: in vivo; conditions: guinea pig; for Rate of inhibition (%) of airway contraction, earlier phase 30 seconds: 30 seconds after endothelin-3; for Rate of inhibition (%) of airway contraction, later phase 3 minutes: 3 minutes after endothelin-3
Procedure: The in vivo effect of the compounds according to the present invention against airway contraction was evaluated according to a slightly modified version of the method of C. Touvay et al. described in European Journal of Pharmacology, 176, 23-33, 1990. That is, male Hartley guinea pigs weighing 350 to 550 grams each which had been previously β-blocked by intravenous injection of propranolol (3 mg/kg) were anesthetized, bronchial cannula were inserted therein and fixed, and connected to an artificial respirator. Next, spontaneous breathing was stopped with 10 mg/kg Gallamine triethiodide (product of sigma Co.), administered intravenously after which artificial respiration was initiated at a determined rate. A respiration volume measuring device was connected to the bronchial cannula bypass, and the change in the air flow was measured as an indication of airway contraction. Endothelin-3 (1.5 μmol/l; product of Peptide Institute, Inc.) was intravenously injected at a dose of 0.1 ml per 100 g body weight. Airway contraction (air flow increase) was observed immediately after injection, and was followed by a diphasic airway contraction reaction with an early and late phase which peaked at 30 seconds and 3 minutes, respectively.
Rate of inhibition (%)=(1−b/a)×100 a: Airway contraction without injection of Compound (I-1) (control) b: Airway contraction with injection of Compound (I-1)

endothelin receptor [1] = target: T1, endothelin receptor (Bos taurus, UniProt P28088); assay: Endothelin receptor-antagonizing effect: 125I-endothelin-1 binding to bovine cerebellar tissue membrane fraction
T1 construct: from tissue; host or cells: bovine cerebellar membrane fraction
T1 sequence (P28088 27-441): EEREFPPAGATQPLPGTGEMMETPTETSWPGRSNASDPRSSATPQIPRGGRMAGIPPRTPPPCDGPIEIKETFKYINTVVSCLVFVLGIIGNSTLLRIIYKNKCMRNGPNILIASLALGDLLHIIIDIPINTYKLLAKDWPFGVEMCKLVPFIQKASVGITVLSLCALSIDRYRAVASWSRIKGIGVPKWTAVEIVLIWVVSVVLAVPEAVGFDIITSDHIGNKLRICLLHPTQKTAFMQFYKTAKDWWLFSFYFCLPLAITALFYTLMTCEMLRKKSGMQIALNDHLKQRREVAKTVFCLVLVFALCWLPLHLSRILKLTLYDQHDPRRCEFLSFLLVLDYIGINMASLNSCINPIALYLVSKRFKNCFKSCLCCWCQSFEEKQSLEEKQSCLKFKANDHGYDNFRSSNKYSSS

endothelin receptor [2] = target: T2, endothelin receptor (Bos taurus, UniProt P21450); assay: Endothelin receptor-antagonizing activity: 125I-endothelin-1 binding to bovine lung membrane fraction with […] Compound (I-1) added
T2 construct: the suspension was used as the membrane fraction liquid; from tissue
T2 sequence (P21450 21-427): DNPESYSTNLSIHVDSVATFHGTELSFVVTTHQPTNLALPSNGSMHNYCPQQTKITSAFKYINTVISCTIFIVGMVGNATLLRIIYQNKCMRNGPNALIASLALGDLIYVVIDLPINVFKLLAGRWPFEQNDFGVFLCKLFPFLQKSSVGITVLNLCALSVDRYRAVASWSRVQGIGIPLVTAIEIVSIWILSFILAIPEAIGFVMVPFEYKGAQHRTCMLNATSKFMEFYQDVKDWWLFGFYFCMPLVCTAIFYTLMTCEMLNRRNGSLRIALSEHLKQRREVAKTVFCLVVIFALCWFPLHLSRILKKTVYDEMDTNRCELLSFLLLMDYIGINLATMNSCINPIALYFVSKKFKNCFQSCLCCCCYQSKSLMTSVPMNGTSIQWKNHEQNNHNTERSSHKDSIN
Procedure: Bovine lung tissue was homogenized at 4° C. using POLYTRON (type PT10/35, manufactured by Kinematica GmbH Co.) in a buffer solution A (pH 8.3) comprising 1 mM NaHCO3, 5 mM ethylenediaminetetraacetic acid, 5 μg/ml leupeptin, 5 μg/ml pepstatin A and 40 μM phenylmethylsulfonyl fluoride.
The inhibition rate against endothelin receptor binding activity was calculated according to the following equation.
Inhibition rate=(C−A/C−B)=100 (%)

[3] = target: endothelin receptor of bovine cerebellar tissue (membrane fraction) (bovine); assay: 125I-endothelin-1 displacement, bovine cerebellar membrane fraction
[4] = target: endothelin receptor of bovine cerebellar tissue (membrane fraction) (bovine); assay: as above; remark: listed apart in the source
[5] = target: endothelin receptor of bovine lung tissue (membrane fraction) (bovine); assay: 125I-endothelin-1 displacement, bovine lung membrane fraction with 1.5 ug/ml Compound (I-1) added

## C[C@@H]1NC(=O)[C@H]([C@@H](C)O)NC(=O)CNC(=O)[C@H](Cc2c[nH]cn2)NC(=O)[C@H](Cc2c[nH]c3ccccc23)NC(=O)[C@H](CC(N)=O)NC(=O)CNC(=O)C[C@@H](C(=O)N[C@@H](Cc2c[nH]c3ccccc23)C(=O)N[C@@H](Cc2ccccc2)C(=O)N[C@@H](Cc2ccccc2)C(=O)N[C@@H](CC(N)=O)C(=O)N[C@@H](Cc2ccc(O)cc2)C(=O)N[C@@H](Cc2ccc(O)cc2)C(=O)N[C@@H](Cc2c[nH]c3ccccc23)C(=O)O)NC(=O)[C@@H]2CCCN2C1=O [Compound I-1]
endothelin-3; 0.1 mg/kg i.v.
  Rate of inhibition (%) of airway contraction, earlier phase 30 seconds: 12.5%
  Rate of inhibition (%) of airway contraction, later phase 3 minutes: 44.0%
endothelin-3; 0.3 mg/kg i.v.
  Rate of inhibition (%) of airway contraction, earlier phase 30 seconds: 46.0%
  Rate of inhibition (%) of airway contraction, later phase 3 minutes: 52.7%
endothelin-3; 1.0 mg/kg i.v.
  Rate of inhibition (%) of airway contraction, earlier phase 30 seconds: 91.8%
  Rate of inhibition (%) of airway contraction, later phase 3 minutes: 78.2%

## C[C@@H]1NC(=O)[C@H]([C@@H](C)O)NC(=O)CNC(=O)[C@H](Cc2c[nH]cn2)NC(=O)[C@H](Cc2c[nH]c3ccccc23)NC(=O)[C@H](CC(N)=O)NC(=O)CNC(=O)C[C@@H](C(=O)N[C@@H](Cc2c[nH]c3ccccc23)C(=O)N[C@@H](Cc2ccccc2)C(=O)N[C@@H](Cc2ccccc2)C(=O)N[C@@H](CC(N)=O)C(=O)N[C@@H](Cc2ccc(O)cc2)C(=O)N[C@@H](Cc2ccc(O)cc2)C(=O)N[C@@H](Cc2c[nH]c3ccccc23)C(=O)OCc2ccccc2)NC(=O)[C@@H]2CCCN2C1=O [Compound I-47]
Endothelin receptor [1]; bovine cerebellar tissue membrane fraction
  IC50: 140 nM
Endothelin receptor [2]
  IC50: > 470 nM

## CC[C@H](C)[C@H](NC(=O)[C@H](CC(=O)O)NC(=O)[C@H](CC(C)C)NC(=O)[C@H](Cc1c[nH]cn1)NC(=O)[C@H](C)NC(=O)[C@H](Cc1ccccc1)NC(=O)[C@H](Cc1ccc(O)cc1)NC(=O)[C@@H](NC(=O)[C@H](Cc1c[nH]c2ccccc12)NC(=O)[C@H](CC(=O)O)NC(=O)[C@@H]1CCCN1C(=O)[C@H](C)NC(=O)[C@@H](NC(=O)CNC(=O)[C@H](Cc1c[nH]cn1)NC(=O)[C@H](Cc1c[nH]c2ccccc12)NC(=O)[C@H](CC(=O)O)NC(=O)CN)[C@@H](C)O)C(C)C)C(=O)N[C@H](C(=O)N[C@@H](Cc1c[nH]c2ccccc12)C(=O)O)[C@@H](C)CC [Compound I-43]
Endothelin receptor [1]
  IC50: 0.63 nM

## C[C@@H]1NC(=O)[C@H]([C@@H](C)O)NC(=O)CNC(=O)[C@H](Cc2c[nH]cn2)NC(=O)[C@H](Cc2c[nH]c3ccccc23)NC(=O)[C@H](CC(N)=O)NC(=O)CNC(=O)C[C@@H](C(=O)N[C@@H](Cc2c[nH]c3ccccc23)C(=O)N[C@@H](Cc2ccccc2)C(=O)N[C@@H](Cc2ccccc2)C(=O)N[C@@H](CC(N)=O)C(=O)N[C@@H](Cc2ccc(O)cc2)C(=O)N[C@@H](Cc2ccc(O)cc2)C(=O)N[C@@H](Cc2c[nH]c3ccccc23)C(=O)N[C@@H](CC(N)=O)C(=O)N[C@@H](Cc2ccc(O)cc2)C(=O)N[C@@H](Cc2ccc(O)cc2)C(=O)N[C@@H](Cc2c[nH]c3ccccc23)C(=O)O)NC(=O)[C@@H]2CCCN2C1=O [Compound I-19] (GNWHGTAPDWFFNYYWNYYW-OH; lactam N-9)
Endothelin receptor [1]
  IC50: 370 nM

## C[C@@H]1NC(=O)[C@H]([C@@H](C)O)NC(=O)CNC(=O)[C@H](Cc2c[nH]cn2)NC(=O)[C@H](Cc2c[nH]c3ccccc23)NC(=O)[C@H](CC(N)=O)NC(=O)CNC(=O)C[C@@H](C(=O)N[C@@H](Cc2c[nH]c3ccccc23)C(=O)N[C@@H](CC(N)=O)C(=O)N[C@@H](Cc2ccc(O)cc2)C(=O)N[C@@H](Cc2ccc(O)cc2)C(=O)N[C@@H](Cc2c[nH]c3ccccc23)C(=O)O)NC(=O)[C@@H]2CCCN2C1=O [Compound I-32] (GNWHGTAPDWNYYW-OH; lactam N-9)
Endothelin receptor [1]
  IC50: > 570 nM

## GNWHGTSPDWFFNYYW (modifications not checked) [Compound (I-3)]
[3]
  IC50: 5 nM

B1: Compound (I-45) (peptide)
peptide: GNWHGTAPDWFFNYY
modifications: lactam Gly 1 N-terminus to Asp 9 side chain; C-terminal carboxyl of Tyr 15 amidated with Trn, 2-(3-indolyl)ethylamine
[4]
  IC50: 50 nM
[5]
  IC50: 300 nM

## GNWHGTAPDWFFNYY[2Nal]-OH (lactam N-9) [Compound (I-49)]
[4]
  IC50: 6.3 nM

## GNWHGTAPDWFFNYYWW (lactam N-9) [Compound (I-18)]
[4]
  IC50: 36 nM

## GNWHGTAPDWFFNYYWWFFNYYW (lactam N-9) [Compound (I-19)]
[4]
  IC50: 370 nM

## GNWHGTAPDWFFNYYWVYFAHLDIIW (lactam N-9) [Compound (I-20)]
[4]
  IC50: 300 nM

## GNWHGTAPDWFFNYY (lactam N-9) [Compound (I-17)]
[4]
  IC50: 54 nM
